Source: PMC2195886 (The Journal of Experimental Medicine, 2001)
Entries after “also recorded” stand apart in the source; their conditions may differ. Peptide text beside a SMILES is read from it.

What follows are compounds tested against T1, HLA-A*0201 (Homo sapiens, UniProt P04439, D140Y/D185E/D98H/E176V/E277Q/G131W/G231S/I119V/I121R/I166T/I218V/L300P/L318F/N151K/N90K/P208A/P217A/Q86G/Q94H/R138H/R169H/T345S) (assay: not given). Conditions: not given.

| Compound | Stability DT50 |
| --- | --- |
| FLPSDYFPSV [HBV control, reference compound] | >4 h |

Same assay, conditions: human, jy cells

| Compound | Stability DT50 |
| --- | --- |
| CC(C)C[C@H](NC(=O)[C@H](CCC(=O)O)NC(=O)[C@H](CC(=O)O)NC(=O)[C@H](CS)NC(=O)[C@H](C)NC(=O)CNC(=O)[C@H](CCC(=O)O)NC(=O)[C@H](CCCCN)NC(=O)[C@H](CC(C)C)NC(=O)[C@@H](N)Cc1ccccc1)C(=O)O | […] |

The compounds below were run against T1, HLA-A*0201 (assay: cell-based). Conditions: not given.
Type: binding

| Compound | IC50 |
| --- | --- |
| CC[C@H](C)[C@H](NC(=O)[C@H](CCCCN)NC(=O)[C@H](CC(C)C)NC(=O)[C@H](CCCCN)NC(=O)[C@H](CCCCN)NC(=O)[C@H](CS)NC(=O)[C@H](CS)NC(=O)[C@H](CC(C)C)NC(=O)[C@@H](N)CCCNC(=N)N)C(=O)O (H-RLCCKKLKI-OH) | 20.8 µM |

Each compound was assayed on 20S proteasomes (assay: 1 μg of purified proteasome). Conditions: human, 37°C, up to 24 h.

| Compound | not cleaved | cleaved bond |
| --- | --- | --- |
| PLETLSITNCRLSEGDVMHLSQSPSVS | – | L342-S343, minor, 1 h |
| DEALAIAALELLPRELFPPLFMAAFDG | – | Leu45-E46, major, 1 h; also recorded: Met58-Ala59, minor, 1 h; also recorded: Ala59-A60, minor, 1 h |
| LAYLHARLRELLCELGRPSMVWLSANP | – | L470-L471, minor, 1 h |
| PTLAKFSPYLGQMINLRRLLLSHIHAS | – | L267-S268, minor, 1 h |
| WTVWSGNRASLYSFPEPEAAQPMTKKR | – | Ala141-S142, major, 1 h; also recorded: Ala151-A152, major, 1 h |

The next lines start with results.

| not cleaved | Compound | cleaved bond |
| --- | --- | --- |
| not COOH-terminally generated | SQFLSLQCLQALYVDSLFFLRGRLDQL | Val303-Asp304, minor, 1 h; also recorded: Asp304-S305, minor, 1 h; also recorded: Leu306-F307, major, 1 h; also recorded: Leu309-R310, major, 1 h |
| not COOH-terminally excised | IPVEVLVDLFLKEGACDELFSYLIEKV | – |
| only Leu-108 was generated | QHLHLETFKAVLDGLDVLLAQEVRPRR | Phe97-Lys98, major, 1 h; also recorded: Leu108-A109, major, 1 h |
| not COOH-terminally excised | VMLTDVSPEPLQALLERASATLQDLVF | – |
| not COOH-terminally excised | QSLLQHLIGLSNLTHVLYPVPLESYED | – |
| not COOH-terminally excised | GNSISISALQSLLQHLIGLSNLTHVLY | L423-Q424, major, 1 h; also recorded: L433-S434, major, 1 h |
